# Results: US9249134B2, “Process for preparation of amorphous form of dasatinib” (CADILA HEALTHCARE LIMITED, priority 2013, dated 2016)
# Columns and labels:
# [1] = in water or organic solvents like methanol, ethanol, propanol, isopropanol, butanol; even in the condition of heating; cited from earlier work
# [2] = Solid-state stability of prior-art amorphous dasatinib under stability conditions; format: physicochemical; details: amorphous dasatinib having higher residual solvents (prior art process), subjected to stability conditions
# Experimental: Therefore, the prior art process provides amorphous dasatinib containing higher amount of residual solvent which is not suitable for pharmaceutical developments.
# As used herein, the term “stable dasatinib” includes either: amorphous dasatinib that after exposure to a relative humidity of 75% at 40° C. or 60% at 25° C., for a period of at least three months contains less than about 0.5% (wt/wt) total impurities and doesn't change to crystalline form.
structure (smiles),measurement,setting,value
"Cc1nc(Nc2ncc(C(=O)Nc3c(C)cccc3Cl)s2)cc(N2CCN(CCO)CC2)n1 [Dasatinib, N-(2-chloro-6-methylphenyl)-2-[[6-[4-(2-hydroxyethyl)-1-piperazinyl]-2-methyl-4-pyrimidinyl]amino]-5-thiazolecarboxamide]",solubility,[1],practically insoluble
Cc1nc(Nc2ncc(C(=O)Nc3c(C)cccc3Cl)s2)cc(N2CCN(CCO)CC2)n1 [amorphous dasatinib],solid form stability (amorphous to crystalline conversion),[2],converts to crystalline form
